Our source for the Ki and Km values is paper PMC11098088, “A distinct, high-affinity, alkaline phosphatase facilitates occupation of P-depleted environments by marine picocyanobacteria” (Proceedings of the National Academy of Sciences of the …, 2024).

The target in one data set is T1, Psip1 (Prochlorococcus marinus, UniProt Q7V066).
T1 construct: gene PMM1416; predicted signal peptide removed; codon-optimized; pET-23a(+), C-terminal His-tag; E. coli BL21(DE3); reconstituted with Fe and Ca
T1 sequence (Q7V066 24-694): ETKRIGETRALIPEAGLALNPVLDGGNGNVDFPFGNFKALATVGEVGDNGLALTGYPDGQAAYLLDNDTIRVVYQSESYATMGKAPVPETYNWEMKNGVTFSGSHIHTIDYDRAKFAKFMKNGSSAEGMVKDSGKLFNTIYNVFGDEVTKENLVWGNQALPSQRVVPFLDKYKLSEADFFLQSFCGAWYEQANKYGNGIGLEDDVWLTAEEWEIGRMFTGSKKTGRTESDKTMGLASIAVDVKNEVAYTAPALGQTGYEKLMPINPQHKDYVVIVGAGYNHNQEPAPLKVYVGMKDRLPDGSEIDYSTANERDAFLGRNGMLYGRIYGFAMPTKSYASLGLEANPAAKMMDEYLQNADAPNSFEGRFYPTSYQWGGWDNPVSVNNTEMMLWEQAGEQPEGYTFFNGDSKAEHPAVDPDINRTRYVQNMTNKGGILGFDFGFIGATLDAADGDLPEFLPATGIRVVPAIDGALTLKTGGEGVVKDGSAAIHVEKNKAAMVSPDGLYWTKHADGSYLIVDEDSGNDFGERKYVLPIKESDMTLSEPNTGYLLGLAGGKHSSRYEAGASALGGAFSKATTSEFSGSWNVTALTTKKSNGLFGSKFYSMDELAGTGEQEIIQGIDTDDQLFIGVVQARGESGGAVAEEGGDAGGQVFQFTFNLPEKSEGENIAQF
The experiment in a line: inhibition of MUF release from MUF-P. The format is biochemical. Conditions: competing with MUF-P; estimated Ki; Fe(III) and Ca2+; Pi release by phosphomolybdate assay. The source says: inhibition of MUF release from […] on Psip1 | natural organic P compounds: glycerol-1-phosphate (G1P) | glycerol-3-phosphate (G3P) | phosphocholine (PC) | phosphorylethanolamine (PE) | adenosine monophosphate (AMP) | glucosamine-6-phosphate (Ga6P) by measuring the inhibition of MUF release from […]

Substrate in data set [1]: O=[N+]([O-])c1ccc(OP(=O)(O)O)cc1
The experiment in a line: purified protein. The class given is biochemical, Prochlorococcus marinus. Conditions: pH 9.8, Fe(III) and Ca2+, 30 °C.

Substrate in data set [2]: Cc1cc(=O)oc2cc(OP(=O)(O)Oc3ccc4c(C)cc(=O)oc4c3)ccc12
The experiment in a line: purified protein. Particulars: pH 8.8, Fe(III) and Ca2+, 30 °C, phosphodiesterase activity.

By Ki is commonly meant the equilibrium dissociation constant of an inhibitor or competing ligand from its target. Take `Nc1ncnc2c1ncn2[C@@H]1O[C@H](COP(=O)(O)O)[C@@H](O)[C@H]1O` [adenosine monophosphate]: on Psip1, the inhibitory constant (Ki) was 1.52 ± 0.22 µM.

On to `N[C@H]1C(O)O[C@H](COP(=O)(O)O)[C@@H](O)[C@@H]1O` (some centres unmarked) [glucosamine-6-phosphate], for which the Ki at Psip1 is recorded as 0.60 ± 0.11 µM.

`O=P(O)(O)OCC(O)CO` (centres unmarked) [glycerol-1-phosphate]: the inhibition constant Ki at Psip1 is listed as 1.20 ± 0.20 µM.

Consider `O=P(O)(O)OC[C@H](O)CO` [glycerol-3-phosphate], for which, at Psip1, the Ki is 0.79 ± 0.15 µM.

Consider `C[N+](C)(C)CCOP(=O)([O-])O` [phosphocholine], for which the inhibition constant (Ki) on Psip1 is reported as 2.20 ± 0.37 µM.

For the molecule `NCCOP(=O)(O)O` [phosphorylethanolamine], the Ki on Psip1 is 4.46 ± 1.08 µM.

B1: Psip1 (Prochlorococcus marinus subsp. pastoris str. CCMP1986) (protein)
chain: ETKRIGETRALIPEAGLALNPVLDGGNGNVDFPFGNFKALATVGEVGDNGLALTGYPDGQAAYLLDNDTIRVVYQSESYATMGKAPVPETYNWEMKNGVTFSGSHIHTIDYDRAKFAKFMKNGSSAEGMVKDSGKLFNTIYNVFGDEVTKENLVWGNQALPSQRVVPFLDKYKLSEADFFLQSFCGAWYEQANKYGNGIGLEDDVWLTAEEWEIGRMFTGSKKTGRTESDKTMGLASIAVDVKNEVAYTAPALGQTGYEKLMPINPQHKDYVVIVGAGYNHNQEPAPLKVYVGMKDRLPDGSEIDYSTANERDAFLGRNGMLYGRIYGFAMPTKSYASLGLEANPAAKMMDEYLQNADAPNSFEGRFYPTSYQWGGWDNPVSVNNTEMMLWEQAGEQPEGYTFFNGDSKAEHPAVDPDINRTRYVQNMTNKGGILGFDFGFIGATLDAADGDLPEFLPATGIRVVPAIDGALTLKTGGEGVVKDGSAAIHVEKNKAAMVSPDGLYWTKHADGSYLIVDEDSGNDFGERKYVLPIKESDMTLSEPNTGYLLGLAGGKHSSRYEAGASALGGAFSKATTSEFSGSWNVTALTTKKSNGLFGSKFYSMDELAGTGEQEIIQGIDTDDQLFIGVVQARGESGGAVAEEGGDAGGQVFQFTFNLPEKSEGENIAQF
notes: predicted signal peptide removed; codon-optimized; pET-23a(+), C-terminal His-tag; E. coli BL21(DE3); reconstituted with Fe and Ca
Usually Km stands for the concentration of substrate that gives half-maximal velocity. Consider B1, for which the Km in “purified protein [1]” is 2.5 ± 1.18 µM; in “purified protein [2]”, 46.1 ± 5.72 µM.
